Data taken from patent publication US20070048358A1, “Antimicrobial substrates” (priority 2005, published 2007).

Test system: Staphylococcus aureus (ATCC #27660)
Test: Rapid Germicidal Time Kill on treated gloves
Type: cell-based
Details: for log reduction of organisms: nitrile gloves, versus applied organisms estimated from latex control
Description: We applied an inoculum of a known amount of microbes to the antimicrobial-treated surface of a glove. After about 3-6 minutes, we assessed the number of microbes that remained on the surface of the treated glove. […] Table 2 reports the relative efficacy of killing after contact with the coated glove. The concentration of organisms on the surface is given at an initial Zero Time point and at 3, 5, and 30 minute points. […] To test the antimicrobial efficacy of a polyhexamethylene biguanide, we treated nitrile examination gloves according to ASTM protocol 04-123409-106 “Rapid Germicidal Time Kill.” In brief, about 50 μL of an overnight culture of Staphylococcus aureus (ATCC #27660, 5×10^8 CFU/mL) was applied to the glove material. After a total contact time of about 6 minutes the glove fabric was placed into a neutralizing buffer. Surviving organisms were extracted and diluted in Letheen broth. Aliquots were spread plated on Tryptic Soy Agar plates. Plates were incubated for 48 hours at 35° C. Following incubation the surviving organisms were counted and the colony forming units (CFU) were recorded. The reduction (log10) in surviving organisms from test material versus control fabric was calculated: Log10 CFU/swatch Control−Log10 CFU/swatch Test Article=Log10 Reduction.

Substance: Polyhexamethylene biguanide (PHMB)
- log reduction of Staphylococcus aureus ATCC 27660 (microtextured nitrile glove, machine applied at 0.03 g/glove): greater than four log reduction
- log reduction of organisms (hand sprayed with no heat): greater than one log reduction
- log reduction of organisms (machine sprayed under heated conditions): greater than 5 log
